Tested on: 966289-007-R4-J1-PDC complex spheroid viability
Test: Anticancer human tumor 966289-007-R4-J1-PDC patient-derived pancreatic adenocarcinoma cell line growth inhibition [RAS]
Conditions: for IC50: curve of first compound; for viability, T/C: stronger effect = lower value
Outline: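 Multi-cell-type spheroids: tumor cells plus HUVEC endothelial cells and mesenchymal stem cells. RAS-pathway inhibitors were combined with targeted agents, each dosed in half-log steps down from clinical Cmax, or from 10 microM when Cmax was unknown.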
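Further: spheroids exposed to agents for one week before readout.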
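Wherever viability, T/C is given: percent viability relative to DMSO vehicle control wells as 100%.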

With CCN1CCN(Cc2ccc(Nc3ncc(F)c(-c4cc(F)c5nc(C)n(C(C)C)c5c4)n3)nc2)CC1 + C#Cc1c(F)ccc2cc(O)cc(-c3ncc4c(N5CC6CCC(C5)N6)nc(OCC56CCCN5CC(F)C6)nc4c3F)c12 the IC50 (second compound 0.0316 µM) was > 1 µM, the IC50 (second compound 0.1 µM) was > 1 µM and the IC50 (second compound 0.316 µM) was > 1 µM. The IC50 (second compound 1 µM) was > 1 µM, the IC50 (second compound 3.16 µM) was > 1 µM and the IC50 (second compound 10 µM) was > 1 µM. The viability, T/C (second compound 0.0316 µM, first compound 0.00316 µM) was 121%, the viability, T/C (second compound 0.0316 µM, first compound 0.01 µM) was 102% and the viability, T/C (second compound 0.0316 µM, first compound 0.0316 µM) was 107%. The viability, T/C (second compound 0.0316 µM, first compound 0.1 µM) was 92.8%, the viability, T/C (second compound 0.0316 µM, first compound 0.316 µM) was 92.1% and the viability, T/C (second compound 0.0316 µM, first compound 1 µM) was 71.8%. For the same compound, the viability, T/C (second compound 0.1 µM, first compound 0.00316 µM) was 113%, the viability, T/C (second compound 0.1 µM, first compound 0.01 µM) was 108% and the viability, T/C (second compound 0.1 µM, first compound 0.0316 µM) was 102%. The viability, T/C (second compound 0.1 µM, first compound 0.1 µM) was 82.7%, the viability, T/C (second compound 0.1 µM, first compound 0.316 µM) was 92.8% and the viability, T/C (second compound 0.1 µM, first compound 1 µM) was 71.1%. It also gave a viability, T/C (second compound 0.316 µM, first compound 0.00316 µM) of 114%, a viability, T/C (second compound 0.316 µM, first compound 0.01 µM) of 112% and a viability, T/C (second compound 0.316 µM, first compound 0.0316 µM) of 100%. For the same compound, the viability, T/C (second compound 0.316 µM, first compound 0.1 µM) was 95.9%, the viability, T/C (second compound 0.316 µM, first compound 0.316 µM) was 84.6% and the viability, T/C (second compound 0.316 µM, first compound 1 µM) was 69.9%. It also gave a viability, T/C (second compound 1 µM, first compound 0.00316 µM) of 104%, a viability, T/C (second compound 1 µM, first compound 0.01 µM) of 103% and a viability, T/C (second compound 1 µM, first compound 0.0316 µM) of 116%. It also gave a viability, T/C (second compound 1 µM, first compound 0.1 µM) of 103%, a viability, T/C (second compound 1 µM, first compound 0.316 µM) of 79.4% and a viability, T/C (second compound 1 µM, first compound 1 µM) of 81.7%. For the same compound, the viability, T/C (second compound 3.16 µM, first compound 0.00316 µM) was 108%, the viability, T/C (second compound 3.16 µM, first compound 0.01 µM) was 109% and the viability, T/C (second compound 3.16 µM, first compound 0.0316 µM) was 113%. The viability, T/C (second compound 3.16 µM, first compound 0.1 µM) was 93.3%, the viability, T/C (second compound 3.16 µM, first compound 0.316 µM) was 88.8% and the viability, T/C (second compound 3.16 µM, first compound 1 µM) was 77%. The viability, T/C (second compound 10 µM, first compound 0.00316 µM) was 108%, the viability, T/C (second compound 10 µM, first compound 0.01 µM) was 90.3% and the viability, T/C (second compound 10 µM, first compound 0.0316 µM) was 121%. It also gave a viability, T/C (second compound 10 µM, first compound 0.1 µM) of 89.2%, a viability, T/C (second compound 10 µM, first compound 0.316 µM) of 93.4% and a viability, T/C (second compound 10 µM, first compound 1 µM) of 66%.
For CC(C)n1nc(-c2ccc3oc(N)nc3c2)c2c(N)ncnc21 + CCn1c(-c2cc(N3CCN(C)CC3)cnc2C(C)OC)c2c3cc(ccc31)-c1csc(n1)CC(NC(=O)C1CC1C)C(=O)N1CCCC(N1)C(=O)OCC(C)(C)C2, the IC50 (second compound 0.000949 µM) was 0.0281 µM, the IC50 (second compound 0.003 µM) was 0.0325 µM and the IC50 (second compound 0.00949 µM) was 0.0307 µM. It also gave an IC50 (second compound 0.03 µM) of 0.0256 µM, an IC50 (second compound 0.0949 µM) of 0.0261 µM and an IC50 (second compound 0.3 µM) of 0.0254 µM. The viability, T/C (second compound 0.000949 µM, first compound 0.000316 µM) was 89.3%, the viability, T/C (second compound 0.000949 µM, first compound 0.001 µM) was 116% and the viability, T/C (second compound 0.000949 µM, first compound 0.00316 µM) was 133%. The viability, T/C (second compound 0.000949 µM, first compound 0.01 µM) was 78.5%, the viability, T/C (second compound 0.000949 µM, first compound 0.0316 µM) was 50.5% and the viability, T/C (second compound 0.000949 µM, first compound 0.1 µM) was 16.2%. The viability, T/C (second compound 0.003 µM, first compound 0.000316 µM) was 83.3%, the viability, T/C (second compound 0.003 µM, first compound 0.001 µM) was 128% and the viability, T/C (second compound 0.003 µM, first compound 0.00316 µM) was 93.6%. It also gave a viability, T/C (second compound 0.003 µM, first compound 0.01 µM) of 108%, a viability, T/C (second compound 0.003 µM, first compound 0.0316 µM) of 50.6% and a viability, T/C (second compound 0.003 µM, first compound 0.1 µM) of 18.5%. It also gave a viability, T/C (second compound 0.00949 µM, first compound 0.000316 µM) of 105%, a viability, T/C (second compound 0.00949 µM, first compound 0.001 µM) of 108% and a viability, T/C (second compound 0.00949 µM, first compound 0.00316 µM) of 107%. It also gave a viability, T/C (second compound 0.00949 µM, first compound 0.01 µM) of 108%, a viability, T/C (second compound 0.00949 µM, first compound 0.0316 µM) of 48.5% and a viability, T/C (second compound 0.00949 µM, first compound 0.1 µM) of 15.2%. For the same compound, the viability, T/C (second compound 0.03 µM, first compound 0.000316 µM) was 107%, the viability, T/C (second compound 0.03 µM, first compound 0.001 µM) was 90.8% and the viability, T/C (second compound 0.03 µM, first compound 0.00316 µM) was 108%. It also gave a viability, T/C (second compound 0.03 µM, first compound 0.01 µM) of 106%, a viability, T/C (second compound 0.03 µM, first compound 0.0316 µM) of 38.1% and a viability, T/C (second compound 0.03 µM, first compound 0.1 µM) of 17.4%. It also gave a viability, T/C (second compound 0.0949 µM, first compound 0.000316 µM) of 98%, a viability, T/C (second compound 0.0949 µM, first compound 0.001 µM) of 117% and a viability, T/C (second compound 0.0949 µM, first compound 0.00316 µM) of 106%. For the same compound, the viability, T/C (second compound 0.0949 µM, first compound 0.01 µM) was 112%, the viability, T/C (second compound 0.0949 µM, first compound 0.0316 µM) was 38.4% and the viability, T/C (second compound 0.0949 µM, first compound 0.1 µM) was 14.7%. The viability, T/C (second compound 0.3 µM, first compound 0.000316 µM) was 91.8%, the viability, T/C (second compound 0.3 µM, first compound 0.001 µM) was 107% and the viability, T/C (second compound 0.3 µM, first compound 0.00316 µM) was 112%. For the same compound, the viability, T/C (second compound 0.3 µM, first compound 0.01 µM) was 87.1%, the viability, T/C (second compound 0.3 µM, first compound 0.0316 µM) was 41.6% and the viability, T/C (second compound 0.3 µM, first compound 0.1 µM) was 16.6%.

— PubChem BioAssay AID2060897 (Molecular Pharmacology Branch, DTP, NCI, 2025)
